Experiments:
HCT116 cells = experiment: Whole cell cytotoxicity assay, Sulforhodamine B; type: cell-based; conditions: Homo sapiens, HCT-116, HCT116, 96 hours incubation, SRB; for GI50: read-out: GI50 HCT116 cell growth; for IC50: read-out: IC50 values in this assay (HCT116 cell growth)
Procedure, shortened: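 HCT116 cells (500/well) in DMEM/10% FBS/2 mM glutamine were preincubated 24 h, then exposed to compound for 96 h at 37 °C, 5% CO2, in duplicate. Cells were fixed with TCA and stained with sulforhodamine B (A570). GI50, TGI and LC50 were derived relative to a time-zero plate and an untreated control.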

[1] = target: T1, N-terminal His-tagged human Src (Homo sapiens, UniProt P12931); experiment: Src kinase inhibition assay (33P-ATP filter assay); type: biochemical
T1 construct: His (N); purchased Upstate USA Inc, 706 Forest Street, Charlottesville, Va

[2] = group with IC50 greater than 100 nM

T1 sequence (P12931 whole entry): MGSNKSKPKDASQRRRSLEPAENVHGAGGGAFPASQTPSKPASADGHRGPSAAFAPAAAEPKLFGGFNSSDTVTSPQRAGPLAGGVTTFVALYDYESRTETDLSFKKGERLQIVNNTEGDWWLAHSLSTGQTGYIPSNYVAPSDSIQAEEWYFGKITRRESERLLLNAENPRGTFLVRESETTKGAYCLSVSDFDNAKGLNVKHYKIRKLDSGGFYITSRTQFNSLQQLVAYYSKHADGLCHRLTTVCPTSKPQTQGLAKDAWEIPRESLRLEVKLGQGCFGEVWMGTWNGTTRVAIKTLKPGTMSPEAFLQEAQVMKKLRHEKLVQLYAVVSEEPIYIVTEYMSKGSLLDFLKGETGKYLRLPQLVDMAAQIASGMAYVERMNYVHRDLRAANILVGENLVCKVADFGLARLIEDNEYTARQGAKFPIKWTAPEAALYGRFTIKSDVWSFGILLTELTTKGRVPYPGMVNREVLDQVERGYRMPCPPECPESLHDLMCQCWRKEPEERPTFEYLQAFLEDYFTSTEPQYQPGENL

| SMILES | GI50 (HCT116 cells) | IC50 ([1]; 40 minutes at room temperature) | IC50 (HCT116 cells) | IC50 [1, 2] |
| --- | --- | --- | --- | --- |
| Cc1cc(Nc2cc(N3CCN(C)CC3)nc(-c3cc4ccccc4o3)n2)n[nH]1 [Compound 1, 2-(benzofuran-2-yl)-N-(5-methyl-1H-pyrazol-3-yl)-6-(4-methylpiperazin-1-yl)pyrimidin-4-amine] | ≤ 1 µM | ≤ 0.1 µM |  |  |
| Cc1cc(Nc2cc(N3CCN(C)CC3)nc(-c3cc4ccccc4n3C)n2)n[nH]1 [Compound 2, 2-(1-methyl-1H-indol-2-yl)-N-(5-methyl-1H-pyrazol-3-yl)-6-(4-methylpiperazin-1-yl)pyrimidin-4-amine] | ≤ 1 µM | ≤ 0.1 µM |  |  |
| Cc1cc(Nc2cc(N3CCC(O)CC3)nc(-c3cc4ccccc4n3C)n2)n[nH]1 [Compound 3, 1-(6-(5-methyl-1H-pyrazol-3-ylamino)-2-(1-methyl-1H-indol-2-yl)pyrimidin-4-yl)piperidin-4-ol] |  | ≤ 0.1 µM | 1 to 10 µM |  |
| Cc1cc(Nc2cc(N(C)CCN(C)C)nc(-c3cc4ccccc4n3C)n2)n[nH]1 [Compound 4, N^4-(2-(dimethylamino)ethyl)-N^4-methyl-2-(1-methyl-1H-indol-2-yl)-N^6-(5-methyl-1H-pyrazol-3-yl)pyrimidine-4,6-diamine] | ≤ 1 µM | ≤ 0.1 µM |  |  |
| Cc1cc(Nc2cc(NCCN3CCOCC3)nc(-c3cc4ccccc4n3C)n2)n[nH]1 [Compound 5, 2-(1-methyl-1H-indol-2-yl)-N^4-(5-methyl-1H-pyrazol-3-yl)-N^6-(2-morpholinoethyl)pyrimidine-4,6-diamine] |  | ≤ 0.1 µM | 1 to 10 µM |  |
| CC(=O)N1CCN(c2cc(Nc3cc(C)[nH]n3)nc(-c3cc4ccccc4n3C)n2)CC1 [Compound 6, 1-(4-(6-(5-methyl-1H-pyrazol-3-ylamino)-2-(1-methyl-1H-indol-2-yl)pyrimidin-4-yl)-piperazin-1-yl)ethanone] | ≤ 1 µM | ≤ 0.1 µM |  |  |
| Cc1cc(Nc2cc(NC3CCOCC3)nc(-c3cc4ccccc4n3C)n2)n[nH]1 [Compound 7, N^4-(tetrahydro-2H-pyran-4-yl)-2-(1-methyl-1H-indol-2-yl)-N^6-(5-methyl-1H-pyrazol-3-yl)pyrimidine-4,6-diamine] |  |  | 1 to 10 µM | ≤ 1 µM |
| Cc1cc(Nc2cc(N(C)CCN(C)C)nc(-c3ccccc3)n2)n[nH]1 [Compound 9, N^4-(2-(dimethylamino)ethyl)-N^4-methyl-N^6-(5-methyl-1H-pyrazol-3-yl)-2-phenylpyrimidine-4,6-diamine] | ≤ 1 µM |  |  | ≤ 1 µM |
| COCCNc1cc(Nc2cc(C)[nH]n2)nc(-c2ccccc2)n1 [Compound 10, N^4-(2-methoxyethyl)-N^6-(5-methyl-1H-pyrazol-3-yl)-2-phenylpyrimidine-4,6-diamine] |  |  | 1 to 10 µM |  |
| Cc1cc(Nc2cc(NCCN3CCOCC3)nc(-c3ccccc3)n2)n[nH]1 [Compound 11, N^4-(5-methyl-1H-pyrazol-3-yl)-N^6-(2-morpholinoethyl)-2-phenylpyrimidine-4,6-diamine] | ≤ 1 µM |  |  | ≤ 1 µM |
| Cc1cc(Nc2cc(NC3CCOCC3)nc(-c3ccccc3)n2)n[nH]1 [Compound 12, N^4-(tetrahydro-2H-pyran-4-yl)-N^6-(5-methyl-1H-pyrazol-3-yl)-2-phenylpyrimidine-4,6-diamine] | ≤ 1 µM | ≤ 0.1 µM |  |  |
| Cc1cc(Nc2cc(NCCN3CCN(C)CC3)nc(-c3ccccc3)n2)n[nH]1 [Compound 13, N^4-(5-methyl-1H-pyrazol-3-yl)-N^6-(2-(4-methylpiperazin-1-yl)ethyl)-2-phenylpyrimidine-4,6-diamine] | ≤ 1 µM |  |  | ≤ 1 µM |
| Cc1cc(Nc2cc(N3CCN(C)CC3)nc(-c3ccco3)n2)n[nH]1 [Compound 14, 2-(furan-2-yl)-N-(5-methyl-1H-pyrazol-3-yl)-6-(4-methylpiperazin-1-yl)-pyrimidin-4-amine] |  |  | 1 to 10 µM | ≤ 1 µM |
| Cc1cc(Nc2cc(NC3CCOCC3)nc(-c3ccc(F)cc3)n2)n[nH]1 [Compound 19, 2-(4-fluorophenyl)-N^4-(5-methyl-1H-pyrazol-3-yl)-N^6-(tetrahydro-2H-pyran-4-yl)pyrimidine-4,6-diamine] |  |  | 1 to 10 µM | ≤ 1 µM |
| Cc1cc(Nc2cc(NC3CCOCC3)nc(-c3ccc(Cl)cc3)n2)n[nH]1 [Compound 22, 2-(4-chlorophenyl)-N^4-(5-methyl-1H-pyrazol-3-yl)-N^6-(tetrahydro-2H-pyran-4-yl)pyrimidine-4,6-diamine] |  |  | 1 to 10 µM | ≤ 1 µM |
| COc1cccc(-c2nc(Nc3cc(C)[nH]n3)cc(NC3CCOCC3)n2)c1 [Compound 29, 2-(3-methoxyphenyl)-N^4-(5-methyl-1H-pyrazol-3-yl)-N^6-(tetrahydro-2H-pyran-4-yl)pyrimidine-4,6-diamine] |  | ≤ 0.1 µM | 1 to 10 µM |  |
| Cc1cc(Nc2cc(N3CCN(C)CC3)nc(-c3ccc(F)cc3)n2)n[nH]1 [Compound 32, 2-(4-fluorophenyl)-N-(5-methyl-1H-pyrazol-3-yl)-6-(4-methylpiperazin-1-yl)pyrimidin-4-amine] | ≤ 1 µM | ≤ 0.1 µM |  |  |
| Cc1cc(Nc2cc(N3CCN(C)CC3)nc(-c3ccc(Cl)cc3)n2)n[nH]1 [Compound 35, 2-(4-chlorophenyl)-N-(5-methyl-1H-pyrazol-3-yl)-6-(4-methylpiperazin-1-yl)pyrimidin-4-amine] |  | ≤ 0.1 µM | 1 to 10 µM |  |
| Cc1cc(Nc2cc(N3CCN(C)CC3)nc(-c3ccccc3Cl)n2)n[nH]1 [Compound 37, 2-(2-chlorophenyl)-N-(5-methyl-1H-pyrazol-3-yl)-6-(4-methylpiperazin-1-yl)pyrimidin-4-amine] |  | ≤ 0.1 µM | 1 to 10 µM |  |
| Cc1ccc(-c2nc(Nc3cc(C)[nH]n3)cc(N3CCN(C)CC3)n2)cc1 [Compound 38, N-(5-methyl-1H-pyrazol-3-yl)-6-(4-methylpiperazin-1-yl)-2-p-tolylpyrimidin-4-amine] | ≤ 1 µM | ≤ 0.1 µM |  |  |
| Cc1cccc(-c2nc(Nc3cc(C)[nH]n3)cc(N3CCN(C)CC3)n2)c1 [Compound 39, N-(5-methyl-1H-pyrazol-3-yl)-6-(4-methylpiperazin-1-yl)-2-m-tolylpyrimidin-4-amine] | ≤ 1 µM | ≤ 0.1 µM |  |  |
| Cc1cc(Nc2cc(N3CCN(C)CC3)nc(-c3ccccc3C)n2)n[nH]1 [Compound 40, N-(5-methyl-1H-pyrazol-3-yl)-6-(4-methylpiperazin-1-yl)-2-o-tolylpyrimidin-4-amine] |  | ≤ 0.1 µM | 1 to 10 µM |  |
| COc1ccc(-c2nc(Nc3cc(C)[nH]n3)cc(N3CCN(C)CC3)n2)cc1 [Compound 41, 2-(4-methoxyphenyl)-N-(5-methyl-1H-pyrazol-3-yl)-6-(4-methylpiperazin-1-yl)pyrimidin-4-amine] | ≤ 1 µM | ≤ 0.1 µM |  |  |
| Cc1cc(Nc2cc(N(C)CCN(C)C)nc(-c3cccc(Cl)c3)n2)n[nH]1 [Compound 49, 2-(3-chlorophenyl)-N^4-(2-(dimethylamino)ethyl)-N^4-methyl-N^6-(5-methyl-1H-pyrazol-3-yl)pyrimidine-4,6-diamine] | ≤ 1 µM | ≤ 0.1 µM |  |  |
| Cc1cccc(-c2nc(Nc3cc(C)[nH]n3)cc(N(C)CCN(C)C)n2)c1 [Compound 52, N^4-(2-(dimethylamino)ethyl)-N^4-methyl-N^6-(5-methyl-1H-pyrazol-3-yl)-2-m-tolylpyrimidine-4,6-diamine] | ≤ 1 µM |  |  | ≤ 1 µM |
